{
  "source": "BindingDB's records for doi:10.1016/s0014-2999(99)00610-x",
  "about": "(Hungarian Academy of Sciences, 1999)",
  "key": {"Mu-type opioid receptor [1]": {"molecular_target": "Mu-type opioid receptor (Cavia porcellus, UniProt P97266)", "sequence (P97266 whole entry)": "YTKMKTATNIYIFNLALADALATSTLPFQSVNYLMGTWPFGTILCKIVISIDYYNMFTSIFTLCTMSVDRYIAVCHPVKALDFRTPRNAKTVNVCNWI"}, "[2]": {"molecular_target": "Kappa-type opioid receptor (Rattus norvegicus, UniProt P34975)", "sequence (P34975 whole entry)": "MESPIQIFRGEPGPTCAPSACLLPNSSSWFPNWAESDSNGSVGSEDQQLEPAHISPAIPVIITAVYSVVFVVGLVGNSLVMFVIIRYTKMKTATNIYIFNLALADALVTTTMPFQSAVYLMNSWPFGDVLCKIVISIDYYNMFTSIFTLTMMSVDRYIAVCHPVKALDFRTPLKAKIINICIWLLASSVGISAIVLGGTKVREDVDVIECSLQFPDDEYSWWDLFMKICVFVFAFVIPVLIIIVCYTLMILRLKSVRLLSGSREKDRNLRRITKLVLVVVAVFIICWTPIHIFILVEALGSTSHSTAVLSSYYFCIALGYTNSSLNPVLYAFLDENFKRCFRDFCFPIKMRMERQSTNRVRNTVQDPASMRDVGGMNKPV"}, "Mu-type opioid receptor [3]": {"molecular_target": "Mu-type opioid receptor (Rattus norvegicus, UniProt P33535)", "sequence (P33535 whole entry)": "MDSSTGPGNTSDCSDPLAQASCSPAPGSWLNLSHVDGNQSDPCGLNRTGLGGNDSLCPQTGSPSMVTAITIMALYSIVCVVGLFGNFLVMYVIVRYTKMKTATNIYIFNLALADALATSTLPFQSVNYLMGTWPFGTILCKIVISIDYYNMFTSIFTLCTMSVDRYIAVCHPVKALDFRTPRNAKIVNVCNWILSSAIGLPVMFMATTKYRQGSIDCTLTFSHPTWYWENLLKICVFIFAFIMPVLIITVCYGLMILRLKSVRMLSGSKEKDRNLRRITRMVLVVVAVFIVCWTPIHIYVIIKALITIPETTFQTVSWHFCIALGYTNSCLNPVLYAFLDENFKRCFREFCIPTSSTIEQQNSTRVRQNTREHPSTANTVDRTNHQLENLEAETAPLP"}, "[4]": {"molecular_target": "Delta-type opioid receptor (Sus scrofa, UniProt P79291)", "sequence (P79291 whole entry)": "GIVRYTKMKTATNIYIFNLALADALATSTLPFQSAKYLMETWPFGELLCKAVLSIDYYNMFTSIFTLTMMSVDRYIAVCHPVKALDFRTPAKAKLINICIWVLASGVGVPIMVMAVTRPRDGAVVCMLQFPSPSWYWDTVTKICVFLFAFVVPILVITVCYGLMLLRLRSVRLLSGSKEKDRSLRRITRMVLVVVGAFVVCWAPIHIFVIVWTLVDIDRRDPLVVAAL"}, "[5]": {"molecular_target": "Delta-type opioid receptor (Rattus norvegicus, UniProt P33533)", "sequence (P33533 whole entry)": "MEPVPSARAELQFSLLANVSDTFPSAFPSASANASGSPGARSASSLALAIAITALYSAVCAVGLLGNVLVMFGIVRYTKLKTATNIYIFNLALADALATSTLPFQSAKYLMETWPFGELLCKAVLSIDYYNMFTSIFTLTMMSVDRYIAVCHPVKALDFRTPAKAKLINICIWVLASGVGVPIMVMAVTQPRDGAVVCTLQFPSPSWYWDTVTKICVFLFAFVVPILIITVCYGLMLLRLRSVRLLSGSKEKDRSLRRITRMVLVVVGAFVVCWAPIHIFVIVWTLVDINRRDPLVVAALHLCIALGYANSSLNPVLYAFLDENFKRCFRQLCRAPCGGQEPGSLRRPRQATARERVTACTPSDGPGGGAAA"}, "[6]": {"molecular_target": "Kappa-type opioid receptor (Cavia porcellus, UniProt P41144)", "sequence (P41144 whole entry)": "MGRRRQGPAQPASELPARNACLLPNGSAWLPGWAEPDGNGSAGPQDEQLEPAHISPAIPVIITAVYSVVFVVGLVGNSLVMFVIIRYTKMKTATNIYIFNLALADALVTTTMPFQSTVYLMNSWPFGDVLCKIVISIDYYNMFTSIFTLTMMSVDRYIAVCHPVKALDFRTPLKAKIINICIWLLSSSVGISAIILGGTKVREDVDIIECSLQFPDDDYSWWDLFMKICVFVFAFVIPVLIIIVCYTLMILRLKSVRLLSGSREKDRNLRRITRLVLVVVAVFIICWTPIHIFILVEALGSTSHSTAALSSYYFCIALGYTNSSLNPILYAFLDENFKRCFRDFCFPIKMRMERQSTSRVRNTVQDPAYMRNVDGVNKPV"}},
  "note": "Values joined by “and” are separate entries in the source; they are usually repeats but may differ in a detail not shown here. Equal values may be shown once. Where a SMILES comes first, the peptide text is derived from it. [ ]: non-standard residue; d: D form. Tic = O=C(O)[C@@H]1Cc2ccccc2CN1",
  "data": [
    {"smiles": "COc1cccc2c1[C@]13CCN(CC4CC4)C(C2)[C@]1(OC)CCC(=O)C3", "values": [
      {"measurement": "Ki", "setting": "Mu-type opioid receptor [1]", "value": 26.6, "unit": "nM"},
      {"measurement": "Ki", "setting": "[2]", "value": 2190, "unit": "nM"},
      {"measurement": "Ki", "setting": "Mu-type opioid receptor [3]", "value": "8.1 nM and 5.4 nM"}
    ]},
    {"smiles": "C[C@@H](O)[C@H](NC(=O)[C@H]1NC(=O)[C@H]([C@@H](C)O)NC(=O)[C@H](CCCN=C(N)N)NC(=O)[C@@H](Cc2c[nH]c3ccccc23)NC(=O)[C@H](Cc2ccc(O)cc2)NC(=O)[C@@H](NC(=O)[C@H](N)Cc2ccccc2)CSSC1(C)C)C(N)=O", "values": [
      {"measurement": "Ki", "setting": "Mu-type opioid receptor [1]", "value": 48.1, "unit": "nM"},
      {"measurement": "Ki", "setting": "Mu-type opioid receptor [3]", "value": 43.8, "unit": "nM"}
    ]},
    {"smiles": "CN1CC[C@]23c4c5ccc(O)c4O[C@H]2[C@@H](O)CCC3[C@H]1C5", "note": "(stereo not given in full) [DIHYDROMORPHINE]", "values": [
      {"measurement": "Ki", "setting": "Mu-type opioid receptor [1]", "value": 6, "unit": "nM"}
    ]},
    {"smiles": "CC(C)[C@H](NC(=O)[C@H](CCC(=O)O)NC(=O)[C@H](Cc1ccccc1)NC(=O)[C@@H](C)NC(=O)[C@@H](N)Cc1ccc(O)cc1)C(=O)N[C@H](C(=O)NCC(N)=O)C(C)C", "note": "[Tyr-D-Ala-Phe-Glu-Val-Val-GlyNH2]", "values": [
      {"measurement": "Ki", "setting": "[4]", "value": 2880, "unit": "nM"},
      {"measurement": "Ki", "setting": "[5]", "value": 1190, "unit": "nM"}
    ]},
    {"smiles": "CC(C)C[C@H](NC(=O)[C@H](Cc1ccccc1)NC(=O)CNC(=O)[C@@H](CO)NC(=O)[C@@H](N)Cc1ccc(O)cc1)C(=O)N[C@H](C(=O)O)[C@@H](C)O", "note": "[DSLET-OH]", "values": [
      {"measurement": "Ki", "setting": "[4]", "value": 6.3, "unit": "nM"},
      {"measurement": "Ki", "setting": "[5]", "value": 9.8, "unit": "nM"}
    ]},
    {"smiles": "C[C@@H](NC(=O)[C@@H](N)Cc1ccc(O)cc1)C(=O)NCC(=O)N(C)[C@@H](Cc1ccccc1)C(=O)NCCO", "note": "[[tyrosyl-3,5-3H(N)]-D-Ala2-Mephe4-glyol5-enkephalin]", "values": [
      {"measurement": "Ki", "setting": "Mu-type opioid receptor [1]", "value": 2.6, "unit": "nM"}
    ]},
    {"smiles": "N[C@@H](Cc1ccc(O)cc1)C(=O)N1Cc2ccccc2C[C@H]1C(=O)N[C@@H](Cc1ccccc1)C(=O)N[C@@H](Cc1ccccc1)C(=O)O", "note": "[TIPP] (H-Y[Tic]FF-OH)", "values": [
      {"measurement": "Ki", "setting": "[4]", "value": 7060, "unit": "nM"},
      {"measurement": "Ki", "setting": "[5]", "value": 2830, "unit": "nM"}
    ]},
    {"smiles": "Oc1ccc2c3c1OC1c4[nH]c5c(c4CC4(O)CN(CCC314)C(C1CC1)C2)CC1(O)CN2CCC13c1c(ccc(O)c1OC53)CC2C1CC1", "note": "(stereo not given) [CAS_105618-26-6]", "values": [
      {"measurement": "Ki", "setting": "[2]", "value": 172, "unit": "nM"},
      {"measurement": "Ki", "setting": "[6]", "value": 770, "unit": "nM"}
    ]}
  ]
}
